Each block holds one molecule with its values, some of them ahead of it.
Experiments:
[1] = system: rat model of growth hormone deficiency (hypophysectomized rats); experiment: Efficacy studies of PEGylated hGH in a rat model of growth hormone deficiency (Example 34); type: in vivo
Procedure: Preclinical efficacy studies were conducted in a rat model of growth hormone deficiency. In this model, the pituitary gland was surgically removed at approximately 4 weeks of age. The body weights of these hypophysectomized rats were monitored after surgery and animals showing less than 7.5 grams of bodyweight gain over a period of 7 days before the study were deemed successfully hypophysectomized and were randomized amongst the treatment groups. Animals showing more than 2.5 g of weight-loss were deemed not healthy and were excluded from the study. The study was initiated approximately 3 weeks after the surgery.
Animals were dosed weekly (i.e. dosed on days 0 and 7) with either placebo or increasing PEG-^ahGH dose. An additional treatment group received Genotropin or placebo daily. Bodyweights and blood were collected predose and daily. All animals were sacrificed on day 14.
For this parameter, the AUC is expressed as AUC above the efficacious IGF-1 plasma level. […] In the current study, the baseline IGF-1 level determined from the placebo group throughout the study was 128 ng/mL. An increase of 34 ng/mL over 128 ng/mL estimates an efficacious IGF-1 level of 162 ng/mL. Thus the AUC above 162 ng/mL was integrated. From this analysis, a dose-dependent increase in AUC above efficacious level was observed after each dose interval.
The duration of IGF-1 levels induced above the estimated efficacious level after the first dose was determined. At the higher doses, the IGF-1 levels had not returned to baseline before the second dose. In these instances, the IGF-1 concentration was extrapolated to the efficacious level using the calculated terminal slopes. From this evaluation, a dose-dependent increase in duration of IGF-1 concentration above the efficacious level was evident.
Bone growth was used as an additional pharmacodynamic measure to calculate the PEG-^ahGH ED50. Tibias were collected from each animal at the end of the study and immersion fixed in 10% neutral-buffered formalin followed by radiography. There was a clear dose-dependent increase in tibial bone length for the PEG-^ahGH treated animals. Moreover, there was a dose sparing effect compared to the daily Genotropin treated animals. The amount of Genotropin administered over a 7-day interval is equivalent to 2.1 mg/kg of PEG-^ahGH given weekly (i.e., days 0 and 7). An induction of tibial bone length increase similar to Genotropin is shown for PEG-^ahGH at 0.42 to 1.0 mg/kg. This represents a ≧50% dose-sparing effect for PEG-^ahGH when compared to Genotropin.

[2] = Rat pharmacokinetics: PEG-ahGH plasma concentration in the rat disease model; type: in vivo
Procedure: The same plasma samples collected for IGF-1 concentration determination were also assayed for PEG-^ahGH concentration. […] The duration of PEG-^ahGH persistence in the circulation, as well as the overall PEG-^ahGH AUC, increased in a dose-dependent manner. […] The PEG-^ahGH exposure results support the dose-dependent efficacy shown above.
Plasma concentration versus time profiles for PEG-^ahGH administered subcutaneously at various doses in the rat disease model are shown in Example 34, above.

[3] = biological target: T1, human growth hormone receptor on IM-9 cells (Homo sapiens, UniProt P10912); experiment: IM-9 pSTAT5 bioassay (STAT5 phosphorylation in IM-9 cells); type: cell-based; conditions: IM-9 cells
T1 construct: host or cells: human IM-9 lymphocyte cell line
T1 sequence (P10912 19-638): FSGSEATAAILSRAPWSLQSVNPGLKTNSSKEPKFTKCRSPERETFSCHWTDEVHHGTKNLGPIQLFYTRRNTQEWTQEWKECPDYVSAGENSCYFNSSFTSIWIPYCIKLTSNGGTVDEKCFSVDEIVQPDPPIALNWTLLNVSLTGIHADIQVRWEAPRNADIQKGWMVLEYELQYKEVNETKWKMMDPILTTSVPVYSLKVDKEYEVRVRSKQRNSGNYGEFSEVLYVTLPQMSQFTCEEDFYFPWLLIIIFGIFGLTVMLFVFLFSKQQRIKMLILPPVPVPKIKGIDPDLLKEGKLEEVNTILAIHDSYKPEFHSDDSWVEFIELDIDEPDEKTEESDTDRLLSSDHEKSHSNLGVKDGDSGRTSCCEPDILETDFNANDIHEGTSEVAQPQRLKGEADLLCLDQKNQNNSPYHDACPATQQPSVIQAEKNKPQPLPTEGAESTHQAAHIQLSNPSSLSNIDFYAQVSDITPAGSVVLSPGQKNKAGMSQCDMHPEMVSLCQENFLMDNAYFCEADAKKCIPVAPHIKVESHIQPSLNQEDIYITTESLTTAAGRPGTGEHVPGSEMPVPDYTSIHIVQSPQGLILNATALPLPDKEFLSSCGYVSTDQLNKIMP
Text: To further assess the biological activity of modified hGH polypeptides, an assay measuring a downstream marker of hGH's interaction with its receptor was used. The interaction of hGH with its endogenously produced receptor leads to the tyrosine phosphorylation of a signal transducer and activator of transcription family member, STAT5, in the human IM-9 lymphocyte cell line. Two forms of STAT5, STAT5A and STAT5B were identified from an IM-9 cDNA library. See, e.g., Silva et al., Mol. Endocrinol. (1996) 10(5):508-518.
IM-9 cells were stimulated with hGH polypeptides of the present invention. The human IM-9 lymphocytes were purchased from ATCC (Manassas, Va.) and grown in RPMI 1640 supplemented with sodium pyruvate, penicillin, streptomycin (Invitrogen, Carlsbad, San Diego) and 10% heat inactivated fetal calf serum (Hyclone, Logan, Utah). The IM-9 cells were starved overnight in assay media (phenol-red free RPMI, 10 mM Hepes, 1% heat inactivated charcoal/dextran treated FBS, sodium pyruvate, penicillin and streptomycin) before stimulation with a 12-point dose range of hGH polypeptides for 10 min at 37° C. Stimulated cells were fixed with 1% formaldehyde before permeabilization with 90% ice-cold methanol for 1 hour on ice. The level of STAT5 phosphorylation was detected by intra-cellular staining with a primary phospho-STAT5 antibody (Cell Signaling Technology, Beverly, Mass.) at room temperature for 30 min followed by a PE-conjugated secondary antibody. Sample acquisition was performed on the FACS Array with acquired data analyzed on the Flowjo software (Tree Star Inc., Ashland, Oreg.). EC50 values were derived from dose response curves plotted with mean fluorescent intensity (MFI) against protein concentration utilizing SigmaPlot.
The interaction of hGH with its receptor leads to the tyrosine phosphorylation of a signal transducer and activator of transcription family member, STAT5, in the human IM-9 lymphocyte cell line.

rat GHR ECD (L43R) = biological target: T2, rat GHR ECD (L43R) (Rattus norvegicus, UniProt P16310, L61R); experiment: Biacore analysis of binding of GH to GHR; conditions: rat GHR ECD (L43R) immobilized on a CM5 chip, bivalent analyte model
T2 construct: (GHR ECD, amino acids S29-T238) was cloned into pET20b vector; made in house
T2 sequence (P16310 47-256 L61R): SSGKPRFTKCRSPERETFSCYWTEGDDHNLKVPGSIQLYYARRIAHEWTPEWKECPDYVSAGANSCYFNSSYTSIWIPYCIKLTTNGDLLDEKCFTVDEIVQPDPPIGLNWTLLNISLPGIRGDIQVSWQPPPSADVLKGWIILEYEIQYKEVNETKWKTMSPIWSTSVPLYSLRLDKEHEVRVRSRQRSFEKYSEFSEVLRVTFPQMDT
Procedure: Cloning and purification of rat GH receptor The extracellular domain of rat GH receptor (GHR ECD, amino acids S29-T238) was cloned into pET20b vector (Novagen) between Nde I and Hind III sites in frame with C-terminal 6H is tag. A mutation of L43 to R was introduced to further approximate the human GH receptor binding site (Souza et al., Proc Natl Acad Sci USA. (1995) 92(4): 959-63). Recombinant protein was produced in BL21 (DE3) E. coli cells (Novagen) by induction with 0.4 mM IPTG at 30° C. for 4-5 hours. After lysing the cells, the pellet was washed four times by resuspending in a dounce with 30 mL of 50 mM Tris, pH 7.6, 100 mM NaCl, 1 mM EDTA, 1% Triton X-100, and twice with the same buffer without Triton X-100. […] Refolding was accomplished by means of passing an aliquot of the inclusion body solution through a S100 (Sigma) gel filtration column, equilibrated with 50 mM Tris, pH 7.8, 1 M L-arginine, 3.7 mM cystamine, 6.5 mM cysteamine. Fractions containing soluble protein were combined and dialyzed against 50 mM Tris, pH 7.6, 200 mM NaCl, 10% glycerol. The sample was briefly centrifuged to remove any precipitate and incubated with an aliquot of Talon resin (Clontech), according to manufacturer's instructions. After washing the resin with 20 volumes of dialysis buffer supplemented with 5 mM imidazole, protein was eluted with 120 mM imidazole in dialysis buffer. Finally, the sample was dialyzed overnight against 50 mM Tris, pH 7.6, 30 mM NaCl, 1 mM EDTA, 10% glycerol, centrifuged briefly to remove any precipitate, adjusted to 20% glycerol final concentration, aliquoted and stored at −80 C. Concentration of the protein was measured by OD(280) using calculated extinction coefficient of ε=65,700 M^−1*cm^−1.
Approximately 600-800 RUs of soluble GHR ECD was immobilized on a Biacore™ CM5 chip, using a standard amine-coupling procedure, as recommended by the manufacturer. […] See, e.g., Cunningham et al. J Mol. Biol. (1993) 234(3): 554-63 and Wells J A. Proc Natl Acad Sci USA (1996) 93(1): 1-6).
Various concentrations of wild type or mutant GH (0.1-300 nM) in HBS-EP buffer (Biacore™, Pharmacia) were injected over the GHR surface at a flow rate of 40 μl/min for 4-5 minutes, and dissociation was monitored for 15 minutes post-injection. The surface was regenerated by a 15 second pulse of 4.5M MgCl2. […] Reference cell with no receptor immobilized was used to subtract any buffer bulk effects and non-specific binding.
Kinetic binding data obtained from GH titration experiments was processed with BiaEvaluation 4.1 software (BIACORE™). […] Equilibrium dissociation constants (Kd) were calculated as ratios of individual rate constants (koff/kon).

[4] = On day 14, after 2 weekly s.c. doses
[5] = after the first dose, curve fitting
[6] = curve fitting of the AUC values from the first dose
[7] = curve fitting of the Cmax values from the first dose

Molecule: Genotropin: commercial preparation of hGH, Genotropin™ (Pfizer) [reference compound]
bodyweight change on day 14 from day 0 ([1]; daily treatment at 0.3 mg/kg/day): 27.74 (+/−7.92) %

Molecule: PEG-^ahGH: PEGylated hGH of SEQ ID NO:2, para-acetylphenylalanine at position 35 linked via an oxime bond to a linear 30 kDa PEG
plasma concentration (hGH ELISA) ([2]; hypophysectomized rats, PEG-ahGH s.c. on days 0 and 7, Genotropin daily): dose-dependent increase in PEG-^ahGH Cmax
apparent terminal half-life ([2]; in rat, subcutaneous): 7.05 (+/−0.47) hours
bodyweight change on day 14 ([1]; 1.0 mg/kg on days 0 and 7): 27.02 (+/−3.97) %
bodyweight change on day 14 from day 0 ([1]; 2.1 mg/kg on days 0 and 7): 33.66 (+/−7.55) %
ED50, Duration of IGF-1 Above Efficacious Level ([1]; After single s.c. dose): 0.173 mg/kg
ED50, IGF-1 AUC Above Efficacious Level ([1]; After single s.c. dose): 0.909 mg/kg
ED50, IGF-1 Induction: IGF-1 Cmax ([1]; After single s.c. dose): 0.136 mg/kg
Range of Effect (Eo-Emax), Duration of IGF-1 Above Efficacious Level ([1]; After single s.c. dose): 0 to 8.84 days
Range of Effect (Eo-Emax), IGF-1 AUC Above Efficacious Level ([1]; After single s.c. dose, AUC above 162 ng/mL): 0-5,029.8 ng × hr/mL
ED50, Tibial Bone Length [1, 4]: 0.424 mg/kg
Range of Effect (Eo-Emax), Percent Bodyweight Change [1, 4]: 7.17-50.65%
Range of Effect (Eo-Emax), Tibial Bone Length [1, 4]: 30.52-33.67 mm
dose-sparing effect over Genotropin (percent bodyweight change) ([1]; PEG-ahGH 1.0 mg/kg on days 0 and 7 vs Genotropin 0.3 mg/kg/day): ~50%
dose-sparing effect when compared to Genotropin (tibial bone length) ([1]; PEG-ahGH 0.42 to 1.0 mg/kg weekly vs daily Genotropin equivalent to 2.1 mg/kg weekly): ≥ 50%
maximum duration of IGF-1 concentration above the efficacious level [1, 5]: 8.84 days
minimum duration of IGF-1 concentration above the efficacious level [1, 5]: 0 days
Emax IGF-1 AUC above efficacious level [1, 6]: 5,029.8 ng×hr/mL
Eo IGF-1 AUC above efficacious level [1, 6]: 0 ng·h/mL
maximum (Emax) IGF-1 Cmax [1, 7]: 1,136.2 ng/mL
minimum (Eo) IGF-1 Cmax [1, 7]: 136.7 ng/mL
maximum percent bodyweight change ([1]; day 14, curve fitting): 50.65%
minimum percent bodyweight change ([1]; day 14, curve fitting): 7.17%
plasma IGF-1 levels throughout the study ([1]; dosed weekly (days 0 and 7) with increasing dose, FIG. 28): robust, dose-dependent increase in IGF-1

Molecule: unPEGylated GH: unPEGylated GH administered weekly at 2.1 mg/kg in hypophysectomized rats [reference compound]
body weight gain ([1]; weekly at 2.1 mg/kg dose): failed to induce body weight gain

B1: human prolactin: human prolactin (protein)
chain: LPICPGGAARCQVTLRDLFDRAVVLSHYIHNLSSEMFSEFDKRYTHGRGFITKAINSCHTSSLATPEDKEQAQQMNQKDFLSLIVSILRSWNEPLYHLVTEVRGMQEAPEAILSKAVEIEEQTKRLLEGMELIVSQVHPETKENEIYPVWSGLPSLQMADEESRLSAYYNLLHCLRRDSHKIDNYLKLLKCRIIHNNNC
STAT5 phosphorylation [3]: neither rat growth hormone nor human prolactin resulted in detectable STAT5 phosphorylation

kon (rat GHR ECD (L43R)): 33000 M⁻¹ s⁻¹
B2: rat GH WT: wild type rat growth hormone (protein)
chain: FPAMPLSSLFANAVLRAQHLHQLAADTYKEFERAYIPEGQRYSIQNAQAAFCFSETIPAPTGKEEAQQRTDMELLRFSLLLIQSWLGPVQFLSRIFTNSLMFGTSDRVYEKLKDLEEGIQALMQELEDGSPRIGQILKQTYDKFDANMRSDDALLKNYGLLSCFKKDLHKAETYLRVMKCRRFAESSCAF
STAT5 phosphorylation [3]: neither rat growth hormone nor human prolactin resulted in detectable STAT5 phosphorylation
